Laboratory results: publication PMC3086427 (Clinical cancer research : an official journal of the …, 2008)
Like-named read-outs stand apart in the source and are kept apart here.

Tests used:
colorectal cancer = conditions: 5-FU chemotherapy regimens, advanced-stage CRC; cited from earlier work
[1] = in vivo
[2] = cited from earlier work
[3] = Plasma pharmacokinetics of EKB-569 and its N-desmethyl metabolite at the MTD
phosphorylated EGFR = conditions: 25 mg EKB-569 with full-dose Irinotecan and infusional 5-FU; cited from earlier work
[4] = p.o., continuous schedule, cited from earlier work
clinical = conditions: human, in vivo, po; for half-life: T1/2

In the case of `O=c1[nH]cc(F)c(=O)[nH]1` [5-FU, 5-fluorouracil], the objective response rate (colorectal cancer) is listed as ~ 20%, the “increase in AUC[0-t] in combination with EKB-569 versus capecitabine alone” value ([1]; human) is listed as 88% and the “increase in AUC[0-∞] in combination with EKB-569 versus capecitabine alone” value ([1]; human) is listed as 81%. The T1/2 ([1]; human, po) was 0.73 ± 0.17 h, the Tmax ([1]; human, po) was 2.00 (0.50–4.00) h and the “increase in 5-FU exposure with continual administration of capecitabine” value ([2]; alone or with other anticancer agents, from no increase upward) was no more than 83%. For the same compound, the “interpatient variability of 5-FU AUC” value ([2]; continued daily dosing of capecitabine, day 14) was 85% and the “AUC of 5-FU on day 14 higher than after a single dose” value ([2]; continued daily dosing of capecitabine) was 34%.

In the case of `CCOc1cc2ncc(C#N)c(Nc3ccc(F)c(Cl)c3)c2cc1NC(=O)/C=C/CNC` [N-desmethyl EKB-569], the AUC ([3]; human, in vivo, po) is reported as 64.4 ± 43.3 ng·h/mL, the Cmax ([3]; human, in vivo, po) is reported as 4.2 ± 3.2 ng/mL and the T1/2 ([3]; human, in vivo, po) is reported as 24.1 ± 9.2 h. For the same compound, the Tmax ([3]; human, in vivo, po) was 3.5 (2–6) h.

In the case of `CCOc1cc2ncc(C#N)c(Nc3ccc(F)c(Cl)c3)c2cc1NC(=O)/C=C/CN(C)C` [EKB-569], the “inhibition of phosphorylated EGFR and downstream signaling pathways in skin and tumor samples” value (phosphorylated EGFR) is listed as “complete inhibition”, the “well-tolerated dose, single agent” value ([4]; patients with advanced solid tumors) is listed as “up to 75 mg per day” and the “principal toxicities, single agent” value [4] is listed as “diarrhea and skin rash”. For the same compound, the “patients who required a dose reduction of the agent at the MTD” value (EKB-569 50 mg daily and capecitabine 1,000 mg/m^2 twice daily) was “four”, the “MTD of EKB-569 combined with capecitabine” value (daily, p.o., 21-day cycle, with capecitabine 1,000 mg/m^2 twice daily) was 50 mg and the “Cl/F (oral clearance)” value ([3]; day 8, 50 mg EKB-569 p.o. daily with 1,000 mg/m^2 capecitabine, mean ± SD) was 57 ± 24 L/h. For the same compound, the “coefficient of variation values for Cmax and AUC (intersubject variability)” value ([3]; day 8, MTD) was less than 40% and the half-life ([3]; human, plasma, po) was 16.6 ± 3.7 h.

With `C[C@H]1O[C@@H](n2cc(F)c(=O)[nH]c2=O)[C@H](O)[C@@H]1O` [5′-DFUR, 5′-deoxy-5-fluorouridine] the “increase in AUC[0-t] in combination with EKB-569 versus capecitabine alone” value ([1]; human) was 28%, the “increase in AUC[0-∞] in combination with EKB-569 versus capecitabine alone” value ([1]; human) was 31% and the half-life (clinical) was 0.72 ± 0.14 h. It also gave a Tmax (clinical) of 2 h.

For `CCCCCOC(=O)Nc1nc(=O)n([C@@H]2O[C@H](C)[C@@H](O)[C@H]2O)cc1F` [capecitabine, reference compound], the mean terminal half-life ([1]; human) was “half an hour”, the “time at which Cmax was observed after p.o. administration” value ([1]; human, po) was 1 h and the “difference of pharmacokinetic variables, monotherapy vs combination therapy” value [1] was “no statistically significant difference”. The half-life (clinical) was 0.52 ± 0.17 h, the Tmax (clinical) was 1 h and the “dose reductions of the agent secondary to diarrhea” value (human, in vivo) was 60%. The “MTD of capecitabine combined with EKB-569” value (twice daily for 14 days of a 21-day cycle, with EKB-569 50 mg daily) was 1,000 mg/m^2.
